Patent US4473578A, “β-Lactam antibiotics and their use” (Beecham Group Limited, priority 1979, dated 1984)
Structures can show the parent of a compound that is named as a salt.

Key:
Assay in all cases: MIC in agar
Assay type in all cases: cell-based
[1] = system: Bacillus subtilis A; settings: in agar; Bacillus subtilis A; read-out: M.I.C.
Text: (§1) a. Antibacterial effectiveness of compounds of
(§2) Examples 6 and 7 in agar.
(§3) (μg/ml) in agar of compound

[2] = system: Citrobacter freundii E8; settings: in agar; Citrobacter freundii E8; read-out: M.I.C.
Text: as §1, §2, §3

[3] = system: Enterobacter cloacae N1; settings: in agar; Enterobacter cloacae N1; read-out: M.I.C.
Text: as §1, §2, §3

[4] = system: Escherichia coli 0111
Text: as §1, §2, §3

[5] = system: Escherichia coli JT39; settings: in agar; Escherichia coli JT39; read-out: M.I.C.
Text: as §1, §2, §3

[6] = system: Klebsiella aerogenes A; settings: in agar; Klebsiella aerogenes A; read-out: M.I.C.
Text: as §1, §2, §3

[7] = system: Proteus mirabilis C977; settings: in agar; Proteus mirabilis C977; read-out: M.I.C.
Text: as §1, §2, §3

[8] = system: Proteus morganii 1580; settings: Morganella morganii; in agar; Proteus morganii 1580; read-out: M.I.C.
Text: as §1, §2, §3

[9] = system: Proteus rettgeri WM16; settings: Providencia rettgeri; in agar; Proteus rettgeri WM16; read-out: M.I.C.
Text: as §1, §2, §3

[10] = system: Proteus vulgaris W091; settings: in agar; Proteus vulgaris W091; read-out: M.I.C.
Text: as §1, §2, §3

[11] = system: Pseudomonas aeruginosa A; settings: in agar; Pseudomonas aeruginosa A; read-out: M.I.C.
Text: as §1, §2, §3

[12] = system: Salmonella typhimurium CT10; settings: Salmonella enterica; in agar; Salmonella typhimurium CT10; read-out: M.I.C.
Text: as §1, §2, §3

[13] = system: Serratia marcescens US20; settings: in agar; Serratia marcescens US20; read-out: M.I.C.
Text: as §1, §2, §3

[14] = system: Shigella sonnei MB 11967; settings: MB11967
Text: as §1, §2, §3

[15] = system: Staphylococcus aureus 1517; settings: in agar; Staphylococcus aureus 1517; read-out: M.I.C.
Text: as §1, §2, §3

[16] = system: Staphylococcus aureus Oxford; settings: in agar; Staphylococcus aureus Oxford; read-out: M.I.C.
Text: as §1, §2, §3

[17] = system: Staphylococcus aureus Russell; settings: in agar; Staphylococcus aureus Russell; read-out: M.I.C.
Text: as §1, §2, §3

[18] = system: Streptococcus faecalis I; settings: Enterococcus faecalis; in agar; Streptococcus faecalis I; read-out: M.I.C.
Text: as §1, §2, §3

[19] = system: Streptococcus pneumoniae CN33
Text: as §1, §2, §3

[20] = system: Streptococcus pyogenes CN10; settings: in agar; Streptococcus pyogenes CN10; read-out: M.I.C.
Text: as §1, §2, §3

[21] = system: E. coli ESS; settings: Escherichia coli
Text: | (μg/ml) in agar of compound

`C[C@H](O)[C@@H]1C(=O)N2C(C(=O)O)=C(S/C=C\C(=O)O)C[C@H]12` [Example 24, The Disodium salt of (5R,6R)-3-[(Z)-2-carboxyethenylthio]-6-[(S)-1-hydroxyethyl]-7-oxo-1-azabicyclo[3.2.0]hept-2-ene-2-carboxylic acid] gave an MIC [1] of at most 0.1 µg/mL, an MIC [2] of 1.2 µg/mL and an MIC [3] of 0.5 µg/mL. It also gave an MIC [4] of 0.2 µg/mL, an MIC [5] of 5 µg/mL and an MIC [6] of 0.2 µg/mL. For the same compound, the MIC [7] was 0.5 µg/mL, the MIC [8] was 0.5 µg/mL and the MIC [9] was 0.5 µg/mL. The MIC [10] was 0.5 µg/mL, the MIC [11] was over 50 µg/mL and the MIC [12] was 0.5 µg/mL. The MIC [13] was 2.5 µg/mL, the MIC [14] was 0.5 µg/mL and the MIC [15] was 5 µg/mL. It also gave an MIC [16] of 0.5 µg/mL, an MIC [17] of 0.5 µg/mL and an MIC [18] of 2.5 µg/mL. For the same compound, the MIC [19] was at most 0.1 µg/mL, the MIC [20] was at most 0.1 µg/mL and the MIC [21] was at most 0.1 µg/mL.
